For assay [1], the system named is methane-producing bacteria. To be noted: 80 mg/kg; paddy fields during rice cultivation; cited from earlier work.
For assay [2], the system named is paddy field soil microorganisms. Nature of the assay: Test Example 3: comparative test of methane-production inhibition with existing inhibitor BES in flooded paddy field soil (headspace GC). It is filed as cell-based. Conditions: 0.5 mg/kg dry soil; for Methane-production amount (mg/L) 21 days after treatment: 21 days static incubation at 30° C., untreated plot 69.3; for Methane-production amount (mg/L) 28 days after treatment: 28 days static incubation at 30° C., untreated plot 119.2. The protocol: In a glass vial (21.5 mL volume) for headspace analysis, 4.0 g of paddy field soil (provisional specific gravity 1.18 g/cm^3) was weighed, and 8 mL of distilled water was added. In this flooded soil, a plot to which 20 μL of acetone solution containing 100 ppm of Compound I-1 was added (0.5 mg/kg dry soil (equivalent to 590 g/ha)) is provided as Example 10, a plot to which 20 μL of an aqueous solution containing 100 ppm of BES (a comparative compound) and acetone was added (0.5 mg/kg dry soil) is provided as Comparative Example 3, and an untreated plot to which 20 μL of acetone was added is provided as Comparative Example 4. After 100 μL of a culture solution of paddy field soil microorganisms was added to these glass vials, the vials were tightly sealed using septum and aluminum caps, and allowed to stand at 30° C. for static incubation. After 21 and 28 days of incubation treatment, 0.5 mL of gas was collected from a headspace in a glass vial sample using a gas tight syringe and analyzed for methane production by gas chromatography (GC). The comparative compound, BES (CAS No.: 4263-52-9; 2-Bromoethanesulfonate), is an existing methane-production inhibitor and a product manufactured by Tokyo Chemical Industry Co., Ltd.

In the next assay the test system is dairy cattle. Conditions: feed treated with from 40 to 80 mg/kg; cited from earlier work.
In assay [3] the test system is paddy field soil microorganisms. Briefly: Test Example 1: methane-production inhibition test by Compound I-1 in flooded paddy field soil (headspace GC). It is filed as cell-based. Conditions: for Methane-production amount (mg/L) 21 days after treatment: 21 days static incubation at 30° C., untreated plot 34.0; for Methane-production amount (mg/L) 28 days after treatment: 28 days static incubation at 30° C., untreated plot 38.9. The protocol:
In a glass vial (21.5 mL volume) for headspace analysis, 4.0 g of paddy field soil (provisional specific gravity 1.18 g/cm^3) was weighed, and 8 mL of distilled water was added. In this flooded soil, a plot to which 40 μL of 10 ppm Compound I-1-containing acetone solution was added (0.1 mg/kg dry soil (equivalent to 118 g/ha)) was provided as Example 1, and a plot to which 20 μL of 100 ppm Compound I-1-containing acetone solution was added (0.5 mg/kg dry soil (equivalent to 590 g/ha)) and a plot to which 40 μL of 100 ppm Compound I-1-containing acetone solution was added (1 mg/kg dry soil (equivalent to 1180 g/ha)) were provided as Examples 2 and 3. As Comparative Example 1, an untreated plot to which 40 μL of acetone was added was provided. After 100 μL of a culture solution of paddy field soil microorganisms was added to these glass vials, the vials were tightly sealed using septum and aluminum caps, and allowed to stand at 30° C. for static incubation. After 21 and 28 days of incubation treatment, 0.5 mL of gas was collected from a headspace in a glass vial sample using a gas tight syringe and analyzed for methane production by gas chromatography (GC). The amount treatment (g) per 1 ha was converted according to the OECD Guideline Test No. 307 issued in 2002, based on the provisional specific gravity of the paddy field soil used.

The test system is the same in assay [4]. Nature of the assay: Test Example 2: methane-production inhibition test by various methane-production inhibitors in flooded paddy field soil (headspace GC). It is filed as cell-based. To be noted: for Methane-production amount compared to untreated plot: 0.5 mg/kg dry soil treatment; for Methane-production amount (mg/L) 21 days after treatment / Methane-production amount (mg/L) 28 days after treatment: 0.5 mg/kg dry soil; for Methane-production amount (mg/L) 21 days after treatment: 21 days static incubation at 30° C., untreated plot 19.6; for Methane-production amount (mg/L) 28 days after treatment: 28 days static incubation at 30° C., untreated plot 44.3. The protocol:
In a glass vial (21.5 mL volume) for headspace analysis, 4.0 g of paddy field soil (provisional specific gravity 1.18 g/cm^3) was weighed, and 8 mL of distilled water was added. In this flooded soil, plots to which 40 μL of acetone solution containing 50 ppm of the compounds listed in Table 2 below were added (0.5 mg/kg dry soil (equivalent to 590 g/ha)), respectively, were provided as Examples 4 to 9. As Comparative Example 2, an untreated plot to which 40 μL of acetone was added was provided. After 100 μL of a culture solution of paddy field soil microorganisms was added to these glass vials, the vials were tightly sealed using septum and aluminum caps, and allowed to stand at 30° C. for static incubation. After 21 and 28 days of incubation treatment, 0.5 mL of gas was collected from a headspace in a glass vial sample using a gas tight syringe and analyzed for methane production by gas chromatography (GC).

Structures are written as SMILES.

For the compound `O=S(=O)([O-])CCBr.[Na+]` [BES, 2-Bromoethanesulfonate, reference compound], the “Reduction of methane emissions compared to a control area” value in assay [1] was 49%. For the same compound, in assay [2], the “Methane-production amount compared to untreated plot” value is given as “reduced”, the “Methane-production amount (mg/L) 21 days after treatment” value is 32.9 mg/L and the “Methane-production amount (mg/L) 28 days after treatment” value turned out to be 80.5 mg/L.

Regarding `O=[N+]([O-])OCCCO` [Compound 3-NOP, 3-nitrooxypropanol], in the assay with dairy cattle, the “Reduction of methane emissions from dairy cattle” value is given as 30%.

For the compound `O=C(Oc1ccc(OS(=O)(=O)CCl)cc1)c1ccccc1` [Compound I-1], the “Methane-production amount compared to untreated plot” value in assay [3] (0.1 mg/kg dry soil (Example 1)) was “reduced”; in assay [4] it was “particularly high reduction effect”; in assay [2], “reduced”. In addition, the “Methane-production amount (mg/L) 21 days after treatment” value in assay [3] (0.1 mg/kg dry soil) was determined as 9.1 mg/L; in assay [3] (0.5 mg/kg dry soil) it was 2.8 mg/L; in assay [3] (1 mg/kg dry soil) it was 2.5 mg/L; in assay [4] it was 2.5 mg/L; in assay [2] it was 13.4 mg/L. Also, the “Methane-production amount (mg/L) 28 days after treatment” value in assay [3] (0.1 mg/kg dry soil) is on record as 21.3 mg/L; in assay [3] (0.5 mg/kg dry soil), 3.7 mg/L; in assay [3] (1 mg/kg dry soil), 3.1 mg/L; in assay [4] it was 3.8 mg/L; in assay [2], 34.2 mg/L. Further, in assay [3] (0.5 mg/kg dry soil and above (Examples 2 and 3)), the “Methane-production reduction effect compared to untreated plot” value is “higher reduction effect”. Besides, in assay [2], the “Methane reduction amount relative to the reduction amount due to the comparative compound” value is recorded as “significantly greater”.

`O=S(=O)(CCl)Oc1ccc(O)cc1` [Compound I-2]: in assay [4], the “Methane-production amount compared to untreated plot” value is reported as “particularly high reduction effect”, the “Methane-production amount (mg/L) 21 days after treatment” value came to 2.5 mg/L and the “Methane-production amount (mg/L) 28 days after treatment” value was 4.4 mg/L.

On to `O=S(=O)(CCl)c1ccc(Br)cc1` [Compound I-3], for which, in assay [4], the “Methane-production amount (mg/L) 21 days after treatment” value is listed as 5.3 mg/L and the “Methane-production amount (mg/L) 28 days after treatment” value is listed as 14.7 mg/L.

Turning to `O=S(=O)(CCl)c1ccc(O)cc1` [Compound I-4], in assay [4], the “Methane-production amount (mg/L) 21 days after treatment” value is on record as 5.4 mg/L and the “Methane-production amount (mg/L) 28 days after treatment” value was determined as 16.7 mg/L.

For the compound `O=S(=O)(CO)c1ccc(Br)cc1` [Compound I-5], in assay [4], the “Methane-production amount (mg/L) 21 days after treatment” value is on record as 15.7 mg/L and the “Methane-production amount (mg/L) 28 days after treatment” value was found to be 24.3 mg/L.

`CS(=O)(=O)Oc1ccc(O)cc1` [Compound I-6]: in assay [4], the “Methane-production amount (mg/L) 21 days after treatment” value is listed as 16.7 mg/L and the “Methane-production amount (mg/L) 28 days after treatment” value is 28.3 mg/L.

The record behind these values is US11795145B2, “Methane-production inhibitor composition and method for inhibiting methane production” (KUMIAI CHEMICAL INDUSTRY CO., LTD., priority 2020, dated 2023).
